SMILES strings stand for the structures. pIC50: −log10 of the molar value.

For the assay, the target named is T1, Aromatase (Homo sapiens, UniProt P11511).
T1 sequence (P11511 whole entry): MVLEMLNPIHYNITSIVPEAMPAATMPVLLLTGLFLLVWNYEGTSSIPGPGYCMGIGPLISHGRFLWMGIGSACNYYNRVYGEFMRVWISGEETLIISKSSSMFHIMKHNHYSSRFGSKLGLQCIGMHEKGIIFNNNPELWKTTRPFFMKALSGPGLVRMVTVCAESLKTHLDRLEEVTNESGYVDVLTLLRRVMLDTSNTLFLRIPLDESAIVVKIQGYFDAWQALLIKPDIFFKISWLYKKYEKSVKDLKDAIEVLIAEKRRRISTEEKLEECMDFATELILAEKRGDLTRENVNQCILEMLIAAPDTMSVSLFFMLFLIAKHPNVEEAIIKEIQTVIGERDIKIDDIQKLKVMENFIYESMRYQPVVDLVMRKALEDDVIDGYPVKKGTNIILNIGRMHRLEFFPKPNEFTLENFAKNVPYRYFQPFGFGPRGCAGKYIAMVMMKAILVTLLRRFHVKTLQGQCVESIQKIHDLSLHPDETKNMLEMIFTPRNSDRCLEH
Put plainly: Inhibition of Cytochrome P450 19A1.
As a reminder, the pIC50 is the IC50 on a negative log10 scale, so that one unit is a factor of ten. A higher pIC50 goes with a small IC50. Compound `CC12CCC3C(CCC4=C(Oc5ccccc5)C(=O)CCC43C)C1CCC2=O` (centres undefined) gave a pIC50 of 6.28.

Compound `CC12CCC3C(C1CCC2=O)[C@H](Sc1ccccc1)CC1=C(Oc2ccccc2)C(=O)CCC13C` (some centres undefined) had a pIC50 of 5.78. Compared with the last compound, the pIC50 is 0.50 log units lower. As for `CC12CCC3C(CCC4=C(Sc5ccccc5)C(=O)CCC43C)C1CCC2=O` (centres undefined), the figure is 6.72; as for `C[C@]12CCC(=O)C=C1C[C@@H](Sc1ccccc1)[C@@H]1[C@@H]2CC[C@]2(C)C(=O)CC[C@@H]12`, 6.19.

Values taken from ChEMBL document CHEMBL1128638, “Probing the hydrophobic pocket of the active site of aromatase with 4-phenoxy-7 alpha-(phenylthio)-4-androstene-3,17-dione” (J Med Chem, 1995).
